# Assay results taken from patent US5691334A, “Pyrrolydenemethyl-derivatives and process for their preparation” (Pharmacia & Upjohn S.p.A., priority 1993, dated 1997).
# Structures can show the parent of a compound that is named as a salt. Where two headings read alike, the source gives them in different places.
# What was measured:
# [1] = tested on: tumor cell lines (human erythroleukemia K562, murine melanoma B16); assay: Tumor cell growth (test 3: proliferation of human erythroleukemia K562, murine melanoma B16; MTT); assay type: cell-based; conditions: read-out: IC50 tumor cell growth (upper and lower limits)
# Experimental: Proliferation of tumor cell lines (human erythroleukemia K562, murine melanoma B16).
# Test 3 allows to investigate the inhibitory effect of the present compounds on a generic proliferation pathway, independent from immune-specific growth factors.
# Tumor cells were collected in the logarithmic phase of growth and seeded in triplicate in flat bottomed microculture plates at the concentration of 1×10^4 in the presence or absence of different concentrations of the test compound. After 48 h incubation at 37° C. in 5% CO2, the cell viability was evaluated by the MTT colorimetric method according to Ferrari et al., J. Immunol.
# The concentration inhibiting 50% (IC50) of the cell proliferation in the different settings is calculated for the test compounds and the reference standard UP.
# murine splenocytes = assay: Lymphocyte proliferation (tests 1 and 2: murine splenocytes induced by ConA / by irradiated allogenic spleen cells, MLR); assay type: cell-based; conditions: for IC50: Mus musculus, Splenocyte, read-out: IC50 lymphocyte proliferation (upper and lower limits); for TI (therapeutic index): ratio of mean IC50 on tumor cells growth (test 3) to IC50 on lymphocytes proliferation (tests 1 and 2)
# Experimental: Proliferation of murine splenocytes induced by the mitogen Concanavaline A.
# Proliferation of murine splenocytes induced by irradiated allogenic murine spleen cells (MLR).
# Tests 1 and 2 allow the study of the compounds on proliferation models mediated by T-cell growth factors (e.g. IL-2) and are considered immunologically specific.
# Spleens were aseptically removed from C57B1/6 mice and a cell suspension prepared in complete medium. Cell viability was evaluated by trypan blue exclusion.
# Spleen cells (4×10^5) were cultured in triplicate in a volume of 0.15 ml, in flat bottomed microculture plates, in the absence or presence of an optimal concentration of ConA (1.7 microgr/ml) and of different concentrations of the test compound. Cultures were incubated for 72 h at 37° C. in a humidified, 5% CO2 incubator; 18 h before termination of the cultures, 0.2 microCi of [methyl-^3 H]thymidine were added to each well. Cells were harvested on glass fiber filters and the [^3 H]TdR uptake (cpm) quantified in a liquid scintillation counter.
# Spleens were aseptically removed from C57B1/6 mice (responders) and Balb/c mice (stimulators), and cell suspensions prepared in complete medium. Responder cells (1×10^6) were cocultured in triplicate with irradiated (1500R) stimulator cells (5×10^5) in a volume of 0.15 ml in the presence or absence of different concentrations of the test compound, in flat bottomed microculture plates. Cultures were incubated for 96 h at 37° C. in a humidified, 5% CO2 incubator; the last 18 h in the presence of 0.2 microCi of ^3 H-TdR.
# Cells were harvested on glass fiber filter and the ^3 H-TdR uptake (cpm) quantified in a liquid scintillation counter.
# The concentration inhibiting 50% (IC50) of the cell proliferation in the different settings is calculated for the test compounds and the reference standard UP. The ratio between the mean IC50 values on tumor cells growth (test 3) and the IC50 on lymphocytes proliferation (measured by test 1 and 2) produces the therapeutic index (TI) of the compounds.
# [2] = test 3, mean IC50 on tumor cells (K562, B16), 48 h, MTT, limits in parentheses
# [3] = tests 1 and 2, [3H]thymidine uptake, ConA 72 h, MLR 96 h, limits in parentheses
"IC50 [1, 2] [µg/mL]",SMILES,IC50 (murine splenocytes; [3]) [µg/mL],TI (therapeutic index) (murine splenocytes),"IC50 ([1]; K562, 48 h) [µg/mL]",IC50 (murine splenocytes) [µg/mL]
0.784,"CCCCCCCCCCCC1=NC(=Cc2[nH]c(-c3ccc[nH]3)cc2OCCCC)C=C1 [FCE 28789, 4-buthoxy-5-[(5-undecyl-2H-pyrrol-2-ylidene)methyl]-2,2'-bi-1H-pyrrole, hydrochloride]",0.0119,66,–,–
0.584,"CCCCCCCCCCCCCC1=NC(=Cc2[nH]c(-c3ccc[nH]3)cc2OC)C=C1.Cl [FCE 28526, 4-methoxy-5-[(5-tridecyl-2H-pyrrol-2-ylidene)methyl]-2,2'-bi-1H-pyrrole, hydrochloride]",0.002,290,–,–
–,"CCCCCCCCCCCC1=NC(=Cc2[nH]c(-c3ccc[nH]3)cc2OCC)C=C1.Cl [FCE 28512, 4-ethoxy-5-[(5-undecyl-2H-pyrrol-2-ylidene)methyl]-2,2'-bi-1H-pyrrole, hydrochloride]",–,222,0.511,0.0023
–,"CCCCCCCCCCCC1=NC(=Cc2[nH]c(-c3ccc[nH]3)cc2OCc2ccccc2)C=C1.Cl [FCE 29002, 4-benzyloxy-5-[(5-undecyl-2H-pyrrol-2-ylidene)methyl]-2,2'-bi-1H-pyrrole, hydrochloride]",–,193,5.8,0.0301
–,"CCCCCCCCCCCC1=NC(=Cc2[nH]c(-c3ccc[nH]3)cc2OC)C=C1.Cl [UP, 4-methoxy-5-[(5-undecyl-2H-pyrrol-2-ylidene)methyl]-2,2'-bi-1H-pyrrole, hydrochloride, reference compound]",–,36,0.106,0.0029
–,"CCCCCCCCCCCCCC1=NC(=Cc2[nH]c(-c3ccc[nH]3)cc2OCC)C=C1.Cl [FCE 28733, 4-ethoxy-5-[(5-tridecyl-2H-pyrrol-2-ylidene)methyl]-2,2'-bi-1H-pyrrole, hydrochloride]",–,168,0.859,0.0051
